The values below come from article PMC4498246, “Synthesis, characterization, and pharmacological evaluation of novel azolo- and azinothiazinones containing 2,4-dihydroxyphenyl substituent as anticancer agents” (Monatshefte Fur Chemie, 2015).

Holding throughout (format): cell-based
One series relates to rat glioma C6 cells. In words: MTT proliferation assay, glioma C6. The conditions noted are these: 96 h. The procedure: (§1) The anticancer effect of compounds was tested in non-small cell lung cancer A549, colon carcinoma HT-29, and glioma C6 cells. The cells were exposed to either culture medium as the control culture or the compounds in concentrations of 10, 25, 50, and 100 μmol dm^−3. […] Cisplatin was used as a reference drug.
(§2) Human non-small cell lung cancer A549 (Cat. No. 86012804), human colon adenocarcinoma HT-29 (Cat. No. 91072201), rat glioma C6 (Cat. No. 92090409) cell lines were obtained from the PHE Culture Collections (Public Health England Culture Collections, Porton Down, Salisbury, UK). Primary culture of normal human skin fibroblasts (HSF) was obtained by the outgrowth technique from skin explants of young persons in our laboratory. The cells were kept in the following culture media purchased from Sigma (Sigma Chemicals, St. Louis, MO, USA): A549—3:1 mixture of DMEM and Nutrient mixture F-12 Ham; C6 and HSF—DMEM, HT-29—1:1 mixture of DMEM and Nutrient mixture F-12 Ham. All media were supplemented with 10 % FBS (Sigma), penicillin (100 U cm^−3, Sigma) and streptomycin (100 μg cm^−3, Sigma). The cultures were kept at 37 °C in a humidified atmosphere of 95 % air and 5 % CO2.
(§3) Cancer cells were plated on 96-well microplates at a density of 1 × 10^4 (A549), 3 × 10^4 (HT-29), and 0.5 × 10^4 (C6) cells cm^−3. Next day, the culture medium was removed and the cells exposed to serial dilutions of compounds (10, 25, 50, and 100 μmol dm^−3) in a fresh medium. Cell proliferation was assessed after 96 h using the MTT method in which the yellow tetrazolium salt (MTT) is metabolized by viable cells to purple formazan crystals. The cancer cells were incubated for 3–4 h with MTT solution (5 mg cm^−3). Formazan crystals were solubilized overnight in the SDS buffer (10 % SDS in 0.01 mol dm^−3 HCl) and the product quantified spectrophotometrically by measuring absorbance at the 570 nm wavelength using a Elx800 microplate reader (BIO-TEK, Highland Park, Winooski, Vermont, USA).

The test system of series [1] is human non-small cell lung cancer A549. In words: MTT proliferation assay, A549. The conditions noted are these: A549 cells, 96 h. The procedure: as §1, §2, §3
In general terms: Tetrazolium dyes change colour on reduction, which living cells bring about.

Series [2] relates to normal human skin fibroblasts HSF. In words: LDH cytotoxicity assay, skin fibroblasts. The conditions noted are these: 24 h; for Effect on death cells in the culture (protective properties, LDH): 10–100 μmol dm^−3. The procedure: Additionally, the influence of compounds on normal human skin fibroblast primary culture (HSF) was assessed. HSF cells were exposed to compounds (10–100 μmol dm^−3) for 24 h and the level of lactic dehydrogenase (LDH) released from the damaged cells was measured (LDH method). […] Only compound 2c in all tested concentrations and 2b in the concentration 100 μmol dm^−3 were highly toxic for skin fibroblasts. […] This may indicate protective properties of the compounds.
as §2
Skin fibroblasts HSF were plated on 96-well microplates at a density of 1 × 10^5 cells cm^−3. The following day, the culture medium was removed and the cells exposed to serial dilutions of compounds (10, 25, 50, and 100 μmol dm^−3) diluted in a fresh culture medium with a reduced amount of FBS (2 %). Cytotoxicity was detected after 24 h with the use In Vitro Toxicology Assay Kit, Lactic Dehydrogenase based (Sigma). The assay is based on the reduction of NAD by the action of lactic dehydrogenase (LDH) released from damaged cells. The resulting NADH is utilized in the stoichiometric conversion of a tetrazolium dye. The resulting coloured compound is measured spectrophotometrically. The test was carried out according to the kit procedure. The colour product was quantified spectrophotometrically at 450 nm wavelength using an Elx800 microplate reader.

Series [3] deals with human colon carcinoma HT-29. In words: MTT proliferation assay, HT-29. The conditions noted are these: HT-29 cells, 96 h. The procedure: as §1, §2, §3

By IC50 is commonly meant the concentration that gives 50% inhibition. Read a low IC50 as greater potency. Take `Cc1c(O)ccc(-c2nc3[nH]cnc3c(=O)s2)c1O` [3a, 5-(2,4-Dihydroxy-3-methylphenyl)imidazo[4,5-d][1,3]thiazin-7(3H)-one]: the IC50 turned out to be 33.1 µM in the series on rat glioma C6 cells (Rattus norvegicus) and 48.8 µM in series [1] (Homo sapiens). In series [2], the “Effect on death cells in the culture (protective properties, LDH)” value (“Effect on death cells in the culture” below) is reported as “induced a decrease of death cells in the culture”.
`CCc1cc(-c2nc3nc[nH]c3c(=O)s2)c(O)cc1O` [4b, 5-(5-Ethyl-2,4-dihydroxyphenyl)imidazo[4,5-d][1,3]thiazine-7(1H)-one] had an IC50 in the series on rat glioma C6 cells (Rattus norvegicus) of 89.7 µM.
`CCCc1nn(C)c2c(=O)sc(-c3cc(C)c(O)cc3O)nc12` [2c, 5-(2,4-Dihydroxy-5-methylphenyl)-1-methyl-3-propylpyrazolo[4,3-d][1,3]thiazin-7(1H)-one]: the half-maximal inhibitory concentration (IC50) in the series with rat glioma C6 cells (Rattus norvegicus) was found to be 27.1 µM; in series [3] (Homo sapiens) it was 157 µM. Besides, the “Cytotoxicity (LDH release)” value in series [2] (all tested concentrations (10–100 μmol dm^−3)) is recorded as “highly toxic”.
Turning to `COc1c(O)ccc(-c2nc3n[nH]cc3c(=O)s2)c1O` [1e, 6-(2,4-Dihydroxy-3-methoxyphenyl)pyrazolo[3,4-d][1,3]thiazin-4(2H)-one], inhibition with rat glioma C6 cells (Rattus norvegicus) was half-maximal at 101 µM (IC50).
As to `Cc1cc(-c2nc3[nH]cnc3c(=O)s2)c(O)cc1O` [3b, 5-(2,4-Dihydroxy-5-methylphenyl)imidazo[4,5-d][1,3]thiazin-7(3H)-one], in series [2], the “Effect on death cells in the culture” value was “induced a decrease of death cells in the culture”.
Still for that read-out and setting: as for `Cc1cc(-c2nc3[nH]cnc3c(=O)s2)c(O)cc1O` [4a, 5-(2,4-Dihydroxy-5-methylphenyl)imidazo[4,5-d][1,3]thiazin-7(1H)-one], the entry is “induced a decrease of death cells in the culture”.
Consider `N.N.[Cl][Pt][Cl]` [cisplatin, reference compound], for which the IC50 stood at 0.4 µM in the series on rat glioma C6 cells, 4.3 µM in series [1] and 6 µM in series [3].
Take `CCc1cc(-c2nc3n[nH]cc3c(=O)s2)c(O)cc1O` [1c, 6-(5-Ethyl-2,4-dihydroxyphenyl)pyrazolo[3,4-d][1,3]thiazin-4(2H)-one]: the IC50 is 23.1 µM in the series with rat glioma C6 cells (Rattus norvegicus), 32.2 µM in series [1] (Homo sapiens) and 20.9 µM in series [3] (Homo sapiens). The “Effect on death cells in the culture” value in series [2] is reported as “induced a decrease of death cells in the culture”.
Consider `CCCc1nn(C)c2c(=O)sc(-c3ccc(O)cc3O)nc12` [2a, 5-(2,4-Dihydroxyphenyl)-1-methyl-3-propylpyrazolo[4,3-d][1,3]thiazin-7(1H)-one], for which the IC50 came out at 48.9 µM with rat glioma C6 cells (Rattus norvegicus) and 56.1 µM in series [1] (Homo sapiens).
Take `O=c1sc(-c2cc(Cl)c(O)cc2O)nc2nc[nH]c12` [4c, 5-(5-Chloro-2,4-dihydroxyphenyl)imidazo[4,5-d][1,3]thiazine-7(1H)-one]: the IC50 was 18.3 µM with rat glioma C6 cells (Rattus norvegicus), 46.7 µM in series [1] (Homo sapiens) and 61.4 µM in series [3] (Homo sapiens).
In the series with rat glioma C6 cells (Rattus norvegicus), `CCCc1nn(C)c2c(=O)sc(-c3cc(Cl)c(O)cc3O)nc12` [2e, 5-(5-Chloro-2,4-dihydroxyphenyl)-1-methyl-3-propylpyrazolo[4,3-d][1,3]thiazin-7(1H)-one] came in with an IC50 of 31.8 µM.
Turning to `Cc1cc(-c2nc3n[nH]cc3c(=O)s2)c(O)cc1O` [1b, 6-(2,4-Dihydroxy-5-methylphenyl)pyrazolo[3,4-d][1,3]thiazin-4(2H)-one], the 50% inhibitory concentration (IC50) with rat glioma C6 cells (Rattus norvegicus) amounted to 35.8 µM; in series [3] (Homo sapiens), 109 µM.
With `CCCc1nn(C)c2c(=O)sc(-c3ccc(O)c(C)c3O)nc12` [2b, 5-(2,4-Dihydroxy-3-methylphenyl)-1-methyl-3-propylpyrazolo[4,3-d][1,3]thiazin-7(1H)-one], the “Cytotoxicity (LDH release)” value in series [2] (concentration 100 μmol dm^−3) is “highly toxic”.
For `CCCc1nn(C)c2c(=O)sc(-c3cc(CC)c(O)cc3O)nc12` [2d, 5-(5-Ethyl-2,4-dihydroxyphenyl)-1-methyl-3-propylpyrazolo[4,3-d][1,3]thiazin-7(1H)-one], the IC50 in the series on rat glioma C6 cells (Rattus norvegicus) stood at 32.2 µM; in series [1] (Homo sapiens), 35 µM.
Take `O=c1sc(-c2cc(Cl)c(O)cc2O)nc2[nH]cnc12` [3d, 5-(5-Chloro-2,4-dihydroxyphenyl)imidazo[4,5-d][1,3]thiazin-7(3H)-one]: the IC50 in the series with rat glioma C6 cells (Rattus norvegicus) came to 53.5 µM.
As to `CCc1cc(-c2nc3[nH]cnc3c(=O)s2)c(O)cc1O` [3c, 5-(5-Ethyl-2,4-dihydroxyphenyl)imidazo[4,5-d][1,3]thiazin-7(3H)-one], the IC50 amounted to 8.2 µM in the series with rat glioma C6 cells (Rattus norvegicus), 49.8 µM in series [1] (Homo sapiens) and 75.4 µM in series [3] (Homo sapiens). For the same molecule, the “Effect on death cells in the culture” value in series [2] is “induced a decrease of death cells in the culture”.
Turning to `Cc1c(O)ccc(-c2nc3n[nH]cc3c(=O)s2)c1O` [1a, 6-(2,4-Dihydroxy-3-methylphenyl)pyrazolo[3,4-d][1,3]thiazin-4(2H)-one], the IC50 in the series on rat glioma C6 cells (Rattus norvegicus) was 17.2 µM; in series [1] (Homo sapiens) it was 9.2 µM; in series [3] (Homo sapiens), 102 µM. In series [2], the “Effect on death cells in the culture” value is “induced a decrease of death cells in the culture”.
